# Where “and” joins values, the source holds several entries; their conditions need not be identical. Equal entries are not always repeated. Where two headings read alike, the source gives them in different places.
# What was measured:
# [1] = test system: Staphylococcus aureus; format: cell-based
# [2] = format: physicochemical
Molecule,activity along EN 13727 (Active/Inefficient) [1],"activity along EN 13727, log reduction [1]",hydrogen peroxide concentration ([2]; T0),hydrogen peroxide concentration ([2]; T = 15 min),hydrogen peroxide concentration ([2]; T = 24 h),hydrogen peroxide concentration ([2]; T = 72 h)
"OO [H2O2, hydrogen peroxide]",Active,>5 log,–,–,–,–
"O=S(=O)([O-])[O-].[Cu+2] [CuSO4, copper sulfate]",Inefficient,–,–,–,–,–
sodium alkylethersulfate,–,–,7.6%,7.6%,7.3% and 7.6%,6.9% and 7.6%
sodium alkylsulfate [Sodium alkyl (dodecyl) sulfate],–,–,7.6%,7.6%,7.6%,7.4% and 7.6%

# — patent publication US20110117209A1 (priority 2008, published 2011)
